Results reported in the NIST ThermoML archive (doi:10.1021/acs.jced.6b00365).

Settings: dynamic light scattering

CCOC(C)(C)C [2-ethoxy-2-methylpropane]
Settings	thermal diffusivity [m2/s]
293.13 K, Liquid	5.67e-08
303.09 K, Liquid	5.45e-08
313.21 K, Liquid	5.16e-08
323.18 K, Liquid	4.96e-08
333.18 K, Liquid	4.79e-08
338.25 K, Liquid	4.7e-08
343.17 K, Liquid	4.64e-08
348.15 K, Liquid	4.55e-08
353.08 K, Liquid	4.49e-08
358.19 K, Liquid	4.43e-08
363.1 K, Liquid	4.38e-08
368.12 K, Liquid	4.33e-08
373.11 K, Liquid	4.3e-08
378.18 K, Liquid	4.26e-08
383.14 K, Liquid	4.2e-08
388.07 K, Liquid	4.17e-08
393.06 K, Liquid	4.15e-08
398.17 K, Liquid	4.1e-08
403.22 K, Liquid	4.08e-08
408.16 K, Liquid	4.02e-08
413.1 K, Liquid	4e-08
418.18 K, Liquid	3.97e-08
423.09 K, Liquid	3.95e-08
428.08 K, Liquid	3.9e-08
433.07 K, Gas	3.03e-07
433.18 K, Liquid	3.85e-08
438.17 K, Liquid	3.82e-08
443.06 K, Liquid	3.77e-08
443.25 K, Gas	2.57e-07
448.18 K, Liquid	3.74e-08
453.13 K, Gas	2.14e-07
453.18 K, Liquid	3.68e-08
458.1 K, Liquid	3.61e-08
463.05 K, Gas	1.7e-07
463.19 K, Liquid	3.53e-08
466.12 K, Liquid	3.5e-08
468.16 K, Gas	1.5e-07
469.18 K, Liquid	3.45e-08
472.09 K, Liquid	3.39e-08
473.25 K, Gas	1.28e-07
475.06 K, Liquid	3.33e-08
478.15 K, Liquid	3.25e-08
478.2 K, Gas	1.08e-07
481.24 K, Liquid	3.16e-08
483.18 K, Gas	8.76e-08
484.23 K, Liquid	3.05e-08
487.17 K, Liquid	2.95e-08
488.25 K, Gas	6.52e-08
490.09 K, Liquid	2.77e-08
493.14 K, Liquid	2.63e-08
493.22 K, Gas	3.68e-08
496.24 K, Liquid	2.27e-08

Liquid
Settings	thermal diffusivity [m2/s]
372.96 K, 4000 kPa	4.4e-08
373.15 K, 7000 kPa	4.47e-08
373.16 K, 10000 kPa	4.5e-08
383.18 K, 10000 kPa	4.45e-08
383.35 K, 7000 kPa	4.41e-08
383.37 K, 4000 kPa	4.34e-08
392.97 K, 7000 kPa	4.35e-08
393 K, 4000 kPa	4.27e-08
393.05 K, 10000 kPa	4.4e-08
402.94 K, 4000 kPa	4.2e-08
402.99 K, 7000 kPa	4.28e-08
403.09 K, 10000 kPa	4.35e-08
413.25 K, 10000 kPa	4.3e-08
413.34 K, 7000 kPa	4.21e-08
413.35 K, 4000 kPa	4.12e-08
421.78 K, 4000 kPa	4.07e-08
421.86 K, 7000 kPa	4.16e-08
422.25 K, 10000 kPa	4.24e-08
431.42 K, 4000 kPa	4e-08
431.52 K, 7000 kPa	4.1e-08
432.83 K, 10000 kPa	4.18e-08
442.12 K, 4000 kPa	3.92e-08
442.19 K, 7000 kPa	4.04e-08
442.53 K, 10000 kPa	4.13e-08
452.09 K, 4000 kPa	3.85e-08
452.26 K, 7000 kPa	3.98e-08
452.4 K, 10000 kPa	4.08e-08
462.41 K, 4000 kPa	3.75e-08
462.47 K, 7000 kPa	3.92e-08
462.95 K, 10000 kPa	4.03e-08
472.45 K, 4000 kPa	3.65e-08
472.63 K, 7000 kPa	3.87e-08
472.63 K, 10000 kPa	3.99e-08
478.13 K, 10000 kPa	3.97e-08
478.14 K, 7000 kPa	3.84e-08
478.2 K, 4000 kPa	3.6e-08
482.44 K, 4000 kPa	3.52e-08
483.15 K, 7000 kPa	3.82e-08
483.2 K, 10000 kPa	3.95e-08
488.15 K, 7000 kPa	3.79e-08
488.65 K, 4000 kPa	3.44e-08
488.83 K, 10000 kPa	3.93e-08
493.13 K, 4000 kPa	3.34e-08
493.16 K, 7000 kPa	3.77e-08
493.3 K, 10000 kPa	3.92e-08
